Legend:
[1] = biological target: human recombinant CB1 receptor (Homo sapiens, UniProt P21554); assay: biochemical; assay type: binding
[2] = tested on: H-460 human lung cell lines; assay: Cytotoxicity to H-460 cells; assay type: cell-based; details: all tested concentrations (up to 20 µg/mL)

human recombinant CB1 receptor, sequence (P21554 whole entry): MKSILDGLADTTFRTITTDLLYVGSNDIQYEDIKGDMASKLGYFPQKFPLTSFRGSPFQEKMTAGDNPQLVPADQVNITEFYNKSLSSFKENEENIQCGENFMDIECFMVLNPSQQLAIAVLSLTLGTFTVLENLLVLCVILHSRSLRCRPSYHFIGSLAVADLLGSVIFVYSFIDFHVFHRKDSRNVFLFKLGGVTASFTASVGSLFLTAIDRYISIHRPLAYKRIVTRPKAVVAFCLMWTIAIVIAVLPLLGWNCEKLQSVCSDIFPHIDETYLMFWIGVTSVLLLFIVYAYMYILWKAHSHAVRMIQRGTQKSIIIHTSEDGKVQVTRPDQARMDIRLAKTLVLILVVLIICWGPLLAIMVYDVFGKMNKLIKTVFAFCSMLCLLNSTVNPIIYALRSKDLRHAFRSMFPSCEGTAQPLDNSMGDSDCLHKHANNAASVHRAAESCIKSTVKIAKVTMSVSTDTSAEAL

C=C(CCCCCCCCCCCCC)CCCC(=O)O/C=C\COC(C)=O [compound 4, propenediester]
affinity for the CB1 cannabinoid receptor (in words) ([1]; radioligand binding assay): completely inactive
cytotoxicity (in words) [2]: inactive

CCCCCCCCCCCCC/C=C/CCC(=O)N(C)[C@H](CO)COC [compound 3, serinolamide A]
EC50 [1]: 2300 nM
